From patent publication US9427429B2, “Cancer diagnosis and imaging” (Tau Therapeutics LLC, priority 2010, dated 2016)

Experiments:
Type in all cases: cell-based
A10 cells = assay: Cell cycle analysis by flow cytometry and BUdR staining, with nocodazole block; settings: for cell cycle arrest point: A10 cells treated 24 hours with T channel blocker before adding nocodazole, FIG. 3
Procedure: Cell cycle analysis was performed using flow cytometry and BUdR staining. In FIG. 3, “Con” represents untreated, control cells. All other cell cultures were treated with nocodazole, which interferes with microtubule polymerization and blocks the cell cycle during M phase. […] Therefore, cell cultures were treated for 24 hours with T channel calcium channel blockers mibefradil (mib), nickel (Ni) or TTL-1177 (a proprietary compound owned by the assignee Tau Therapeutics), before adding nocodazole.

[1] = test system: Human colon cancer cells, cell line HT29; assay: Uptake of imaging marker FDG after mibefradil, HT29; settings: FDG 60 minutes after removal
Procedure: The efficacy of the uptake of imaging markers after treatment with a cell cycle inhibitor was determined. Human colon cancer cells, cell line HT29, were first incubated for 24 hours with the cell cycle inhibitor mibefradil at concentrations of 5 μM (5 uM-FDG-HT29) and 10 μM (10 uM-FDG-HT29). After 24 hours of incubation with the mibefradil, the HT29 cells were removed from mibefradil contact. After 60 minutes of being removed from mibefradil contact, the imaging marker 2-deoxy-2-(^18F)fluoro-D-glucose (hereinafter, “FDG”) was administered.
With a concentration of 10 μM of mibefradil, the increase in uptake of FDG was about 100% as compared to uptake of cells not incubated with mibefradil.

[2] = test system: human prostate cancer cells of the PC3 cell line; assay: Uptake of imaging marker 3H-FDG after mibefradil, PC3; settings: PC3, 10 μM mibefradil for 72 hours; data not shown
Procedure: (§1) The uptake of an imaging marker was also determined in human lung cancer cells of cell line A549. A549 cells were incubated with 5 μM, 10 μM and 15 μM concentrations of the cell cycle inhibitor mibefradil for 24 hours. After 24 hours of incubation with the mibefradil, the A549 cells were removed from mibefradil contact. After 30 minutes of being removed from mibefradil contact, the imaging marker tritiated FDG (hereinafter “3H-FDG”) was administered. […] Although not shown, incubation of human prostate cancer cells of the PC3 cell line with 10 μM mibefradil for 72 hours increased uptake of the subsequently introduced imaging marker 3H-FDG by about 60%.

[3] = test system: human prostate cancer cells of cell line PC3; assay: Effect of mibefradil on the cell cycle of PC3 cells; settings: PC3, 5 μM or 10 μM for 24 hours or 48 hours; effect of increasing concentration and contact time; FIG. 5
Procedure: To measure the effect of mibefradil on the cell cycle of human prostate cancer cells of cell line PC3, PC3 cells were incubated with varying concentrations of mibefradil for varying times. The PC3 cells were incubated with either a 5 μM concentration or a 10 μM concentration for either 24 hours or 48 hours.

[4] = test system: human lung cancer cells of cell line A549; assay: Cell cycle progression after mibefradil incubation, A549
Procedure: (§2) To measure the efficacy of the cell cycle inhibitor mibefradil at stopping progression through the cell cycle, human lung cancer cells of cell line A549 and human prostate cancer cells of cell line were incubated with 10 μM mibefradil for 48 hours (M48H). […] Further data was collected by incubating the same cell lines with 10 μM of mibefradil for 18 hours followed by a 12 hour washout followed by another […] incubation with mibefradil (M18-12-18h).

[5] = test system: human lung cancer cells of cell line A549; assay: Uptake of imaging marker 3H-FDG after mibefradil, A549; settings: 3H-FDG 30 minutes after removal
Procedure: as §1

[6] = test system: human prostate cancer cells; assay: Cell cycle progression after mibefradil incubation, prostate cancer cells
Procedure: as §2

Compound	cell cycle arrest point (A10 cells)	uptake of the imaging marker FDG vs cells not incubated ([1]; HT29, 5 μM and 10 μM mibefradil 24 hours, FIG. 6)	increase in uptake of FDG vs cells not incubated ([1]; HT29, 10 μM mibefradil 24 hours)	increase in uptake of 3H-FDG [2]	proportion of cells in the G1 phase [3]	proportion of cells in the G1 phase vs control ([4]; A549, 10 μM for 18 hours, 12 hour washout, another 8 hour incubation (M18-12-18h))	proportion of cells in the G1 phase ([4]; A549, 10 μM mibefradil for 48 hours (M48H), FIG. 4)	uptake of 3H-FDG ([5]; A549, 5 μM, 10 μM and 15 μM mibefradil 24 hours, FIG. 7)	mibefradil concentration of maximal 3H-FDG uptake ([5]; A549, 24 hours incubation, 5, 10, 15 μM tested) [µM]	proportion of cells in the G1 phase vs control ([6]; 10 μM for 18 hours, 12 hour washout, another 8 hour incubation (M18-12-18h))	proportion of cells in the G1 phase ([6]; 10 μM mibefradil for 48 hours (M48H), FIG. 4)	cell cycle block (A10 cells; A10 cells, nocodazole alone, flow cytometry)
COCC(=O)O[C@]1(CCN(C)CCCc2nc3ccccc3[nH]2)CCc2cc(F)ccc2[C@@H]1C(C)C [mibefradil]	arrested cells at the cell cycle checkpoint between G0 and G1	increased	about 100%	about 60%	increases the proportion of cells in the G1 phase	greater proportion of cells in the G1 phase	increased the proportion of cells in the G1 phase	increase in uptake being observed at all concentrations	5	greater proportion of cells in the G1 phase	increased the proportion of cells in the G1 phase	
COC(=O)Nc1nc2ccc(C(=O)c3cccs3)cc2[nH]1 [nocodazole]												blocked cell cycle transit through M phase
[Ni] [nickel]	arrested cells at the cell cycle checkpoint between G0 and G1											
